Details: Cohort 3 400 mg QD

With `CC(C)NC(=O)COc1cccc(-c2nc(Nc3ccc4[nH]ncc4c3)c3ccccc3n2)c1` [Belumosudil, 2-{3-[4-(1H-indazol-5-ylamino)-2-quinazolinyl]phenoxy}-N-(propan-2-yl) acetamide] the “Renal failure: Affected/At Risk” value was 0/21, the “Renal failure: Affected/At Risk (%)” value was “(0%)” and the “Respiratory syncytial virus infection: # Events” value was 3. For the same compound, the “Respiratory syncytial virus infection: Affected/At Risk” value was 2/21, the “Respiratory syncytial virus infection: Affected/At Risk (%)” value was “(9.52%)” and the “Respiratory tract infection fungal: # Events” value was 0. The “Respiratory tract infection fungal: Affected/At Risk” value was 0/21, the “Respiratory tract infection fungal: Affected/At Risk (%)” value was “(0%)” and the “Respiratory tract infection: # Events” value was 0. For the same compound, the “Respiratory tract infection: Affected/At Risk” value was 0/21, the “Respiratory tract infection: Affected/At Risk (%)” value was “(0%)” and the “Restless legs syndrome: # Events” value was 0. For the same compound, the “Restless legs syndrome: Affected/At Risk” value was 0/21, the “Restless legs syndrome: Affected/At Risk (%)” value was “(0%)” and the “Rosacea: # Events” value was 0. The “Rosacea: Affected/At Risk” value was 0/21, the “Rosacea: Affected/At Risk (%)” value was “(0%)” and the “SAE Abdominal wall haematoma, # events” value was 1. The “SAE Abdominal wall haematoma, affected/at risk” value was 1/21, the “SAE Acute kidney injury, # events” value was 0 and the “SAE Acute kidney injury, affected/at risk” value was 0/21. The “SAE Acute lymphocytic leukaemia recurrent, # events” value was 1, the “SAE Acute lymphocytic leukaemia recurrent, affected/at risk” value was 1/21 and the “SAE Acute respiratory failure, # events” value was 0. For the same compound, the “SAE Acute respiratory failure, affected/at risk” value was 0/21, the “SAE Anaphylactic reaction, # events” value was 0 and the “SAE Anaphylactic reaction, affected/at risk” value was 0/21. The “SAE Bacteraemia, # events” value was 0, the “SAE Bacteraemia, affected/at risk” value was 0/21 and the “SAE Cardiac arrest, # events” value was 1. The “SAE Cardiac arrest, affected/at risk” value was 1/21, the “SAE Cellulitis, # events” value was 0 and the “SAE Cellulitis, affected/at risk” value was 0/21. For the same compound, the “SAE Chronic graft versus host disease in skin, # events” value was 0, the “SAE Chronic graft versus host disease in skin, affected/at risk” value was 0/21 and the “SAE Citrobacter infection, # events” value was 0. The “SAE Citrobacter infection, affected/at risk” value was 0/21, the “SAE Dyspnoea, # events” value was 3 and the “SAE Dyspnoea, affected/at risk” value was 3/21. For the same compound, the “SAE Embolism, # events” value was 0, the “SAE Embolism, affected/at risk” value was 0/21 and the “SAE Febrile neutropenia, # events” value was 1. For the same compound, the “SAE Febrile neutropenia, affected/at risk” value was 1/21, the “SAE Graft versus host disease in lung, # events” value was 1 and the “SAE Graft versus host disease in lung, affected/at risk” value was 1/21. For the same compound, the “SAE Hypoxia, # events” value was 2, the “SAE Hypoxia, affected/at risk” value was 2/21 and the “SAE Influenza A virus test positive, # events” value was 0. The “SAE Influenza A virus test positive, affected/at risk” value was 0/21, the “SAE Influenza like illness, # events” value was 2 and the “SAE Influenza like illness, affected/at risk” value was 2/21. The “SAE Lacunar infarction, # events” value was 0, the “SAE Lacunar infarction, affected/at risk” value was 0/21 and the “SAE Leukaemia recurrent, # events” value was 1. For the same compound, the “SAE Leukaemia recurrent, affected/at risk” value was 1/21, the “SAE Lipomatosis, # events” value was 0 and the “SAE Lipomatosis, affected/at risk” value was 0/21. For the same compound, the “SAE Metastases to meninges, # events” value was 0, the “SAE Metastases to meninges, affected/at risk” value was 0/21 and the “SAE Muscular weakness, # events” value was 0. The “SAE Muscular weakness, affected/at risk” value was 0/21, the “SAE Myelodysplastic syndrome, # events” value was 1 and the “SAE Myelodysplastic syndrome, affected/at risk” value was 1/21. For the same compound, the “SAE Non-cardiac chest pain, # events” value was 0, the “SAE Non-cardiac chest pain, affected/at risk” value was 0/21 and the “SAE Obliterative bronchiolitis, # events” value was 0. For the same compound, the “SAE Obliterative bronchiolitis, affected/at risk” value was 0/21, the “SAE Pericardial effusion, # events” value was 1 and the “SAE Pericardial effusion, affected/at risk” value was 1/21. For the same compound, the “SAE Pleural effusion, # events” value was 1, the “SAE Pleural effusion, affected/at risk” value was 1/21 and the “SAE Pneumonia viral, # events” value was 1. The “SAE Pneumonia viral, affected/at risk” value was 1/21, the “SAE Pneumonia, # events” value was 3 and the “SAE Pneumonia, affected/at risk” value was 3/21. The “SAE Pregnancy of partner, # events” value was 1, the “SAE Pregnancy of partner, affected/at risk” value was 1/21 and the “SAE Proteinuria, # events” value was 0. For the same compound, the “SAE Proteinuria, affected/at risk” value was 0/21, the “SAE Respirovirus test positive, # events” value was 0 and the “SAE Respirovirus test positive, affected/at risk” value was 0/21. The “SAE Small intestinal obstruction, # events” value was 1, the “SAE Small intestinal obstruction, affected/at risk” value was 1/21 and the “SAE Stenotrophomonas infection, # events” value was 0. For the same compound, the “SAE Stenotrophomonas infection, affected/at risk” value was 0/21, the “SAE Urinary retention, # events” value was 1 and the “SAE Urinary retention, affected/at risk” value was 1/21. For the same compound, the “SAE Urinary tract infection, # events” value was 0, the “SAE Urinary tract infection, affected/at risk” value was 0/21 and the “SAE Varicella zoster virus infection, # events” value was 1. The “SAE Varicella zoster virus infection, affected/at risk” value was 1/21, the “SAE total, affected/at risk” value was 13/21 and the “Sinus pain: # Events” value was 0. The “Sinus pain: Affected/At Risk” value was 0/21, the “Sinus pain: Affected/At Risk (%)” value was “(0%)” and the “Sinusitis: # Events” value was 1. The “Sinusitis: Affected/At Risk” value was 1/21, the “Sinusitis: Affected/At Risk (%)” value was “(4.76%)” and the “Skin abrasion: # Events” value was 2. For the same compound, the “Skin abrasion: Affected/At Risk” value was 2/21, the “Skin abrasion: Affected/At Risk (%)” value was “(9.52%)” and the “Skin lesion: # Events” value was 0. The “Skin lesion: Affected/At Risk” value was 0/21, the “Skin lesion: Affected/At Risk (%)” value was “(0%)” and the “Skin papilloma: # Events” value was 0. For the same compound, the “Skin papilloma: Affected/At Risk” value was 0/21, the “Skin papilloma: Affected/At Risk (%)” value was “(0%)” and the “Spinal compression fracture: # Events” value was 0. The “Spinal compression fracture: Affected/At Risk” value was 0/21, the “Spinal compression fracture: Affected/At Risk (%)” value was “(0%)” and the “Squamous cell carcinoma of skin: # Events” value was 0. The “Squamous cell carcinoma of skin: Affected/At Risk” value was 0/21, the “Squamous cell carcinoma of skin: Affected/At Risk (%)” value was “(0%)” and the “Stomatitis: # Events” value was 1. For the same compound, the “Stomatitis: Affected/At Risk” value was 1/21, the “Stomatitis: Affected/At Risk (%)” value was “(4.76%)” and the “Superior vena cava syndrome: # Events” value was 0. For the same compound, the “Superior vena cava syndrome: Affected/At Risk” value was 0/21, the “Superior vena cava syndrome: Affected/At Risk (%)” value was “(0%)” and the “Tachycardia: # Events” value was 2. For the same compound, the “Tachycardia: Affected/At Risk” value was 2/21, the “Tachycardia: Affected/At Risk (%)” value was “(9.52%)” and the “Tendonitis: # Events” value was 0. For the same compound, the “Tendonitis: Affected/At Risk” value was 0/21, the “Tendonitis: Affected/At Risk (%)” value was “(0%)” and the “Testicular pain: # Events” value was 0. The “Testicular pain: Affected/At Risk” value was 0/21, the “Testicular pain: Affected/At Risk (%)” value was “(0%)” and the “Testicular swelling: # Events” value was 0. For the same compound, the “Testicular swelling: Affected/At Risk” value was 0/21, the “Testicular swelling: Affected/At Risk (%)” value was “(0%)” and the “Thoracic spinal stenosis: # Events” value was 0. For the same compound, the “Thoracic spinal stenosis: Affected/At Risk” value was 0/21, the “Thoracic spinal stenosis: Affected/At Risk (%)” value was “(0%)” and the “Thrombocytopenia: # Events” value was 1. The “Thrombocytopenia: Affected/At Risk” value was 1/21 and the “Thrombocytopenia: Affected/At Risk (%)” value was “(4.76%)”.
